Values after ≈ are worked out from the molar mass of the structure shown. Like-named read-outs stand apart in the source and are kept apart here.
Assays:
Escherichia coli 205 [1] = experiment: Antibiotic activity in vitro, agar dilution method in DST agar (MIC); type: cell-based; details: for MIC Escherichia coli 205: in vitro
Source text: (§1) A. Die antibiotische Aktivität der Testverbindungen in vitro wurde durch die Agarverdünnungsmethode nach Ericsson, H.M., und Sherris, S.C., 1971, Acta Path. Microb. Scand. Section B, Suppl. No. 217, Bd. 1-90, in DST Agar ermittelt. Die gefundenen, das Wachstum der Testorganismen noch hemmenden Minimalkonzentrationen (MIC = minimum inhibiting concentrations) werden in Mikrogramm pro Mililiter ([…]) für die geprüften Verbindungen in der Tabelle 1 angegeben.

Proteus rettgeri 856 = experiment: as above; type: cell-based; details: for MIC Proteus rettgeri 856: in vitro
Source text: as §1

[2] = system: Streptococcus pyogenes Aronson; experiment: as above; type: cell-based; details: for MIC: Streptococcus pyogenes, read-out: MIC Streptococcus pyogenes Aronson
Source text: as §1

Escherichia coli 205 [3] = experiment: Chemotherapeutic efficacy in vivo against systemic infection in mice (ED50); set-up: species or system Maus; details: for ED50: Escherichia coli, 205, sc, read-out: ED50 Escherichia coli 205
Source text: (§2) B. Die chemotherapeutische Wirksamkeit in vivo gegen systemische Infektionen in weiblicher SPF, MF2 Mäusen wurde nach der Methode von Zak, 0. et al., 1979, Drugs Exptl. Clin. Res. 5, 45-59, ermittelt. Die gefundenen ED50-Werte in Milligramm Substanz pro Kilogramm Maus (mg/kg) für eine Anzahl von Mikroorganismen werden für die subcutan (s.c.) applizierten Testverbindungen in der Tabelle 2 angegeben.

[4] = system: Staphylococcus aureus 10 B; experiment: as above; set-up: species or system Maus; details: for ED50 Staphylococcus aureus 10 B: s.c.; for ED50: Staphylococcus aureus, 10B, sc, read-out: ED50 Staphylococcus aureus 10 B
Source text: as §2

[5] = in vitro, agar dilution, DST Agar
[6] = s.c., systemic infection, female SPF MF2 mice
[7] = systemic infection, female SPF MF2 mice
[8] = Escherichia coli, 205, in vitro, agar dilution, DST Agar, read-out: MIC Escherichia coli 205
[9] = Providencia rettgeri, 856, in vitro, agar dilution, DST Agar, read-out: MIC Proteus rettgeri 856
[10] = agar dilution, DST Agar, listed as 8

SMILES | MIC (Escherichia coli 205 [1]; [8]) [µg/mL] | ED50 (Escherichia coli 205 [3]; [6]) [mg/kg] | ED50 [4, 7] [mg/kg] | MIC [2, 5] [µg/mL] | MIC (Proteus rettgeri 856; [9]) [µg/mL] | other results
CO/N=C(\C(=O)N[C@@H]1C(=O)N2C(C(=O)OCOC(=O)C(C)(C)C)=C(COC(N)=O)CS[C@H]12)c1coc(N)n1 [Beispiel 18, 3-Carbamoyloxymethyl-7ß-[2-(2-amino-4-oxazolyl)-2-Z-methoxyimino-acetylamino]-3-cephem-4-carbonsäure-pivaloyloxymethylester] |  |  |  |  |  | MIC Escherichia coli 205 (Escherichia coli 205 [1]; agar dilution, DST Agar): 0,1 µg/ml; MIC Proteus rettgeri 856 (Proteus rettgeri 856; agar dilution, DST Agar): 0,01 µg/ml; MIC Streptococcus pyogenes Aronson [2, 5]: 0,02 µg/ml; ED50 Escherichia coli 205 (Escherichia coli 205 [3]; [6]): >30 mg/kg; ED50 Staphylococcus aureus 10 B [4, 7]: 8 mg/kg
CO/N=C(\C(=O)N[C@@H]1C(=O)N2C(C(=O)O)=C(CSc3nnnn3C)CS[C@H]12)c1coc(N)n1 [Testverbindung 1] | 0.1 (≈ 0.202 µM) | 1.5 | 12 |  |  | 
CO/N=C(\C(=O)N[C@@H]1C(=O)N2C(C(=O)O)=C(CSc3nnnn3CC(=O)O)CS[C@H]12)c1coc(N)n1 [Testverbindung 2] | 0.5 (≈ 0.927 µM) | 0.63 | 55 | 0.1 (≈ 0.185 µM) |  | 
CO/N=C(\C(=O)N[C@@H]1C(=O)N2C(C(=O)O)=C(CSc3nnnn3CCN(C)C)CS[C@H]12)c1coc(N)n1.Cl.Cl [Testverbindung 3, 3-[1-(2-Dimethylaminoäthyl)-1H-tetrazol-5-ylthiomethyl]-7ß-[2-(2-amino-4-oxazolyl)-2-Z-methoxyiminoacetylamino]-3-cephem-4-carbonsäure-dihydrochlorid] |  |  |  |  |  | MIC Escherichia coli 205 (Escherichia coli 205 [1]; agar dilution, DST Agar): 0,2 µg/ml; MIC Proteus rettgeri 856 (Proteus rettgeri 856; agar dilution, DST Agar): 0,01 µg/ml; MIC Streptococcus pyogenes Aronson [2, 5]: 0,05 µg/ml; ED50 Escherichia coli 205 (Escherichia coli 205 [3]; [6]): >30 mg/kg; ED50 Staphylococcus aureus 10 B [4, 7]: >30 mg/kg
CO/N=C(\C(=O)N[C@@H]1C(=O)N2C(C(=O)O)=C(CSc3nnnn3CCN(C)C)CS[C@H]12)c1coc(N)n1 [Testverbindung 3] | 0.1 (≈ 0.181 µM) | 1.7 | 28 | 0.02 (≈ 0.0362 µM) | 0.02 (≈ 0.0362 µM) | 
CO/N=C(/C(=O)N[C@@H]1C(=O)N2C(C(=O)O)=C(CSc3nnnn3CCN(C)C)CS[C@H]12)c1coc(N)n1 [Testverbindung 4] | 8 (≈ 14.5 µM) |  |  | 0.05 (≈ 0.0905 µM) | 2 (≈ 3.62 µM) | 
CO/N=C(\C(=O)N[C@@H]1C(=O)N2C(C(=O)[O-])=C(C[n+]3ccc(C(N)=O)cc3)CS[C@H]12)c1coc(N)n1 [Testverbindung 5, 3-(4-Carbamoylpyridiniomethyl)-7β-[2-(2-amino-4-oxazolyl)-2-Z-methoxyiminoacetylamino]-3-cephem-4-carboxylat] |  |  |  | 0.02 (≈ 0.0399 µM) |  | MIC Escherichia coli 205 (Escherichia coli 205 [1]; [10]): 4 µg/mL (≈ 7.98 µM); MIC Proteus rettgeri 856 (Proteus rettgeri 856; [10]): 1 µg/mL (≈ 1.99 µM); ED50 Escherichia coli 205 (Escherichia coli 205 [3]; s.c., systemic infection, female SPF MF2 mice, listed as 8): >30 mg/kg; ED50 Staphylococcus aureus 10 B ([4]; systemic infection, female SPF MF2 mice, listed as 8): >30 mg/kg
CO/N=C(\C(=O)N[C@@H]1C(=O)N2C(C(=O)[O-])=C(C[n+]3ccc(C(N)=O)cc3)CS[C@H]12)c1coc(N)n1 [Testverbindung 5] |  |  |  |  |  | MIC Escherichia coli 205 (Escherichia coli 205 [1]; agar dilution, DST Agar): 0,2 µg/ml; MIC Proteus rettgeri 856 (Proteus rettgeri 856; agar dilution, DST Agar): 0,02 µg/ml; ED50 Escherichia coli 205 (Escherichia coli 205 [3]; [6]): 2,4 mg/kg; ED50 Staphylococcus aureus 10 B [4, 7]: 5,5 mg/kg
CC(=O)OCC1=C(C(=O)O)N2C(=O)[C@@H](NC(=O)/C(=N\O)c3coc(N)n3)[C@H]2SC1 [Testverbindung 6] | 0.1 (≈ 0.235 µM) | 1 | 1.35 |  | 0.02 (≈ 0.047 µM) | 
CC(C)(ON=C(C(=O)NC1C(=O)N2C(C(=O)[O-])=C(C[n+]3ccccc3)CSC12)c1coc(N)n1)C(=O)O (stereo not shown) [Testverbindung 9, 3-Pyridiniomethyl-7ß-[2-(2-amino-4-oxazolyl)-2-Z-(2-carboxy-prop-2-yloxyimino)-acetylamino]-3-cephem-4-carboxylat-natriumsalz] | 0.2 (≈ 0.377 µM) | 4.4 | > 30 | 0.2 (≈ 0.377 µM) | 0.01 (≈ 0.0188 µM) | 
CC(C)(O/N=C(\C(=O)N[C@@H]1C(=O)N2C(C(=O)[O-])=C(C[n+]3ccccc3)CS[C@H]12)c1coc(N)n1)C(=O)O [Testverbindung 9] | 1 (≈ 1.88 µM) | 5.6 | > 30 | 0.5 (≈ 0.942 µM) | 0.2 (≈ 0.377 µM) | 
CC(C)(O/N=C(\C(=O)N[C@@H]1C(=O)N2C(C(=O)[O-])=C(C[n+]3ccc(C(N)=O)cc3)CS[C@H]12)c1coc(N)n1)C(=O)O [Testverbindung 10] | 0.5 (≈ 0.872 µM) | 1.6 | > 30 | 0.2 (≈ 0.349 µM) | 0.5 (≈ 0.872 µM) | 
CC(C)(ON=C(C(=O)NC1C(=O)N2C(C(=O)[O-])=C(C[n+]3ccc(C(N)=O)cc3)CSC12)c1coc(N)n1)C(=O)O (stereo not shown) [Testverbindung 10] | 4 (≈ 6.97 µM) | > 30 | > 30 | 0.02 (≈ 0.0349 µM) | 0.2 (≈ 0.349 µM) | 
CO/N=C(\C(=O)N[C@@H]1C(=O)N2C(C(=O)O)=C(COC(C)=O)CS[C@H]12)c1coc(N)n1 [Testverbindung 13] | 0.1 (≈ 0.228 µM) | 1 | 5 | 0.01 (≈ 0.0228 µM) |  | 
CO/N=C(\C(=O)N[C@@H]1C(=O)N2C(C(=O)O)=CCS[C@H]12)c1coc(N)n1 [Testverbindung 14] | 0.2 (≈ 0.544 µM) | 9 | 30 | 0.01 (≈ 0.0272 µM) |  | 
CON=C(C(=O)NC1C(=O)N2C(C(=O)[O-])=C(C[n+]3cccc(Cl)c3)CSC12)c1coc(N)n1 (stereo not shown) [Testverbindung 16, 3-(3-Chlorpyridiniomethyl)-7ß-[2-(2-amino-4-oxazolyl)-2-Z-methoxyiminoacetylamino]-3-cephem-4-carboxylat] |  |  |  |  |  | MIC (Escherichia coli 205 [1]; Escherichia coli, 205, read-out: MIC Escherichia coli 205): 8 µg/mL (≈ 16.2 µM); MIC (Proteus rettgeri 856; Providencia rettgeri, 856, read-out: MIC Proteus rettgeri 856): 0.1 µg/mL (≈ 0.203 µM); MIC [2]: 0.2 µg/mL (≈ 0.406 µM); ED50 (Escherichia coli 205 [3]): 14 mg/kg; ED50 [4]: 30 mg/kg
CON=C(C(=O)NC1C(=O)N2C(C(=O)[O-])=C(C[n+]3ccc(C(=O)O)cc3)CSC12)c1coc(N)n1 (stereo not shown) [Testverbindung 17, 3-(4-Carboxylatpyridiniomethyl)-7ß-[2-(2-amino-4-oxazolyl)-2-Z-methoxyiminoacetylamino]-3-cephem-4-carboxylat-natriumsalz] | 0.5 (≈ 0.995 µM) | 2 | 5.5 | 0.02 (≈ 0.0398 µM) |  | 
CO/N=C(\C(=O)N[C@@H]1C(=O)N2C(C(=O)[O-])=C(C[n+]3ccc(C(=O)O)cc3)CS[C@H]12)c1coc(N)n1 [Testverbindung 17] | 0.5 (≈ 0.995 µM) |  | > 30 | 0.05 (≈ 0.0995 µM) | 0.02 (≈ 0.0398 µM) | 
